Active and inactive are the calls of the source. Some results are limits rather than exact numbers.

From ChEMBL document CHEMBL1201862, “PubChem BioAssay data set” (2004) come the findings set out here.

For the first experiment, the target named is T1, Corticotropin-releasing factor receptor 2/Corticotropin-releasing factor-binding protein (Homo sapiens, UniProt P24387+Q13324).
T1 sequence (Q13324 whole entry): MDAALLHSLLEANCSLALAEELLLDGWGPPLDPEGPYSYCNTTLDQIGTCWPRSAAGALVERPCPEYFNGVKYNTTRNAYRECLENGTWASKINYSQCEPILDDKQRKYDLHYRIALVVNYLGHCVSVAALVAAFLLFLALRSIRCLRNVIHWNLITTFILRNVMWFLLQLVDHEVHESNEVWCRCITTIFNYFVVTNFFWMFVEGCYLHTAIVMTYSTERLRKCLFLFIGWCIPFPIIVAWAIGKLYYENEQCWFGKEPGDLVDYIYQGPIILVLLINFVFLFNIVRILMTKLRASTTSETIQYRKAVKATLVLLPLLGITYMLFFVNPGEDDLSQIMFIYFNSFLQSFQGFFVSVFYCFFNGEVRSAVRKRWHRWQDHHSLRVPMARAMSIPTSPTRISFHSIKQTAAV
T1 sequence (P24387 whole entry): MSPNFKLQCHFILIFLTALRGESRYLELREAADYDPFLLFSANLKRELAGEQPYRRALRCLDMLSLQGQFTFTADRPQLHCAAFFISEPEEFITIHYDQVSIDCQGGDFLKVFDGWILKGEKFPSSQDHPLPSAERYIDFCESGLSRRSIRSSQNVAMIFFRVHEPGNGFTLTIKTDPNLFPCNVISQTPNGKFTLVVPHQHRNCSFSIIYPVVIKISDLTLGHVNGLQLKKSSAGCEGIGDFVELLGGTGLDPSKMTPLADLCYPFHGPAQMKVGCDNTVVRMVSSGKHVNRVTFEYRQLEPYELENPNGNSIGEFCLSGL
In words: activators of CRF receptor 2 with binding protein – uHTS hits, confirmation (AID 602473). Particulars: read-out: EC50_Mean. The class given is functional.
As for `O=C(CCc1nnc2ccc(NCc3ccco3)nn12)N1CCN(c2ccccc2F)CC1`, the EC50 was > 53 µM (inactive).

`N#CCC(=O)Nc1ccc(C(=O)OCC(=O)NNC(=O)c2cccs2)cc1`: the EC50 is > 53 µM (inactive).

On to `Cc1ccc(NS(=O)(=O)c2cccc3nsnc23)cc1`, for which the EC50 is > 53 µM (inactive).

In the case of `COc1ccc(S(=O)(=O)N(c2onc(C)c2Cl)S(=O)(=O)c2ccc(OC)cc2)cc1`, the EC50 is > 53 µM (inactive).

For `CCc1cc2cc(C)cc(C)c2nc1SCC(=O)N1CCN(C(=O)c2ccco2)CC1`, the EC50 is > 53 µM (inactive).

For the molecule `c1ccc(-c2noc(CN3CCN(c4cnccn4)CC3)n2)cc1`, the EC50 is > 53 µM (inactive).

In the case of `O=[N+]([O-])c1cccc(COc2ccc(CN3CCOCC3)cc2)c1`, the EC50 was > 53 µM (inactive).

With `CN(/N=C/c1ccc(Cl)cc1Cl)c1ncc(Cl)cc1C(F)(F)F`, the EC50 was > 53 µM (inactive).

For the molecule `COc1cc(C[C@H](C)[C@H](C)Cc2ccc3c(c2)OCO3)ccc1O` [AUSTROBAILIGNAN 6], the EC50 is > 53 µM (inactive).

A further experiment addresses T2, Streptokinase A (Streptococcus pyogenes serotype M1, UniProt P10520).
T2 sequence (P10520 whole entry): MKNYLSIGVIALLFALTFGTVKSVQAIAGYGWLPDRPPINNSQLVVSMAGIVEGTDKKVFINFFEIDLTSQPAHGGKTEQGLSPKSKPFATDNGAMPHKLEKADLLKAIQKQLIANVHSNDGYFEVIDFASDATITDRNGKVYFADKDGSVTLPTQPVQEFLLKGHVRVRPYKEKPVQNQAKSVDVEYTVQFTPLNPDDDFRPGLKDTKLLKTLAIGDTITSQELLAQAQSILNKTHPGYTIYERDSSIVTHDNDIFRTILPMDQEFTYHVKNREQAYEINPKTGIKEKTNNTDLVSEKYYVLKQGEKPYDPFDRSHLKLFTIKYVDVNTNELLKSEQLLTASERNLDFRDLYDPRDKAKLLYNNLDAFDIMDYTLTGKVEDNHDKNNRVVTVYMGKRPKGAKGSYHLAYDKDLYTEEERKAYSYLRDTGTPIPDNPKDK
In words: S. pyogenes streptokinase expression inhibitors, potency, dose response, plasminogen activation absorbance, OD405 (AID 1914).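 Note: secreted streptokinase activity via plasminogen activation per viability signal from cell pellet.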 The class given is functional, Streptococcus pyogenes M1 GAS.
Conditions: not given
In the case of `CN(/N=C/c1ccc(Cl)cc1Cl)c1ncc(Cl)cc1C(F)(F)F`, the EC50 was 21.2 µM (active).

The next experiment has as its system Streptococcus. In words: Group A Streptococcus viability loss, dose response, counter-screen for streptokinase expression inhibitor project, luminescence, BacTiterGlo (AID 1915).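 Note: potency for reduction of bacterial viability or growth.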 The class given is functional, organism-based.
Conditions: not given
Background: The purpose of a counterscreen is to sort out artefacts and off-target activity.
Regarding `CN(/N=C/c1ccc(Cl)cc1Cl)c1ncc(Cl)cc1C(F)(F)F`, the EC50 was > 150 µM (not active).

Tested on in a further experiment: not listed separately
In words: inhibitors of intracellular T. cruzi replication, confirmation, NIH3T3 host cells, beta-gal luminescence (AID 2044).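 Note: intracellular parasites grown in NIH/3T3 mouse fibroblasts as host cells; luminescent beta-galactosidase reporter signal from transgenic T. cruzi replicating inside host cells; inhibitors lower the luminescence signal.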 The class given is functional, cell-based.
Conditions: not given
As for `Cc1cccc(N(CC(O)CON=C2c3ccccc3-c3ccccc32)S(C)(=O)=O)c1` (centres undefined), the EC50 was 3.22 µM (active).

Tested on in another experiment: not listed separately
In words: Luminescence Cell-Based Dose Retest to Confirm Inhibitors of Cancer Stem Cells. [Related pubchem assays (depositor defined):AID2717, AID2721]. The class given is functional. Particulars: Homo sapiens.
One may read the AC50 as the concentration giving half of the maximal activity seen. On to `CCc1cc2cc(C)cc(C)c2nc1SCC(=O)N1CCN(C(=O)c2ccco2)CC1`, for which the AC50 is 12.8 µM (active).

As to `COc1cc(C[C@H](C)[C@H](C)Cc2ccc3c(c2)OCO3)ccc1O` [AUSTROBAILIGNAN 6], the AC50 is 5.23 µM (active).

Tested on in another experiment: not listed separately
In words: growth suppression of PTEN-null colon cells, dose response, cell-based, HCT116 PTEN knockout (AID 1047).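 Note: HCT116 colon tumor cells with PTEN knocked out; cells exposed to compound for 60 hours before readout; potency for loss of cell viability measured by luminescence.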 The class given is functional.
Conditions: not given
On to `COc1ccc(-c2c3c(nc4sc5c(Cl)nc(C)nc5c24)CCC3)cc1`, for which the EC50 is 4.46 µM (active).

Consider `Cc1ccc(C(=O)/C=C/c2ccc(Br)cc2)o1`, for which the EC50 is 8.44 µM (active).

For `CCOC(=O)c1c(NC(=O)c2cc3n(n2)C(C(F)(F)F)CC(c2cccs2)N3)sc(C)c1C` (centres undefined), the EC50 is 2.45 µM (active).

As for `Cc1cccc(N(CC(O)CON=C2c3ccccc3-c3ccccc32)S(C)(=O)=O)c1` (centres undefined), the EC50 was 28.8 µM (active).

As to `O=C(Nc1nc2ccc(Cl)cc2s1)c1ccc(N2CCCCC2)c([N+](=O)[O-])c1`, the EC50 is 12.2 µM (active).

As for `Cc1ccc(-c2nc(CSCC(=O)N3CCN(c4ccccn4)CC3)c(C)o2)cc1`, the EC50 was 35 µM (active).

The next experiment deals with T1, Corticotropin-releasing factor receptor 2/Corticotropin-releasing factor-binding protein. In words: Dose Response confirmation of uHTS hits for small molecule antagonists of the CRF-binding protein and CRF-R2 receptor complex. The class given is functional. Particulars: read-out: IC50_Mean.
Regarding `O=C(CCc1nnc2ccc(NCc3ccco3)nn12)N1CCN(c2ccccc2F)CC1`, the IC50 was > 47.1 µM (inactive).

For `N#CCC(=O)Nc1ccc(C(=O)OCC(=O)NNC(=O)c2cccs2)cc1`, the IC50 is > 47.1 µM (inactive).

Take `Cc1ccc(NS(=O)(=O)c2cccc3nsnc23)cc1`: the IC50 was > 47.1 µM (inactive).

Take `COc1ccc(S(=O)(=O)N(c2onc(C)c2Cl)S(=O)(=O)c2ccc(OC)cc2)cc1`: the IC50 was > 47.1 µM (inactive).

With `CCc1cc2cc(C)cc(C)c2nc1SCC(=O)N1CCN(C(=O)c2ccco2)CC1`, the IC50 was > 47.1 µM (inactive).

Take `c1ccc(-c2noc(CN3CCN(c4cnccn4)CC3)n2)cc1`: the IC50 was > 47.1 µM (inactive).

For `O=[N+]([O-])c1cccc(COc2ccc(CN3CCOCC3)cc2)c1`, the IC50 was > 47.1 µM (inactive).

As to `CN(/N=C/c1ccc(Cl)cc1Cl)c1ncc(Cl)cc1C(F)(F)F`, the IC50 is > 47.1 µM (inactive).

In the case of `COc1cc(C[C@H](C)[C@H](C)Cc2ccc3c(c2)OCO3)ccc1O` [AUSTROBAILIGNAN 6], the IC50 was > 47.1 µM (inactive).

Tested on in a further experiment: not listed separately
In words: inhibitors of HIV Env-driven cell fusion, dose response, cherry-pick (AID 652057). The class given is functional, cell-based.
Conditions: not given
Regarding `CCNC(=O)C[C@H]1CC[C@@H]2[C@@H](COc3ccc(NC(=O)Nc4cccc(OC)c4)cc3C(=O)N2C)O1`, the AC50 is 37.7 µM (active).

Tested on in the next experiment: not listed separately
In words: cytotoxicity toward NIH3T3 fibroblasts, dose response, counter-screen, cell-based, ATP luminescence, mouse fibroblasts (AID 2010).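 Note: cells exposed to compound for about 90 hours before reading.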 The class given is functional.
Conditions: not given
For `Cc1cccc(N(CC(O)CON=C2c3ccccc3-c3ccccc32)S(C)(=O)=O)c1` (centres undefined), the EC50 is recorded as > 60 µM (not active).

The test system of a further experiment is Streptococcus sp. 'group A'. In words: growth inhibition of control SK(-) GAS strain, dose response, counter-screen for streptokinase expression inhibitor project, luminescence, kanamycin, BacTiterGlo, confirmation (AID 1900). The class given is functional, organism-based.
Conditions: not given
Consider `CN(/N=C/c1ccc(Cl)cc1Cl)c1ncc(Cl)cc1C(F)(F)F`, for which the EC50 was 16.9 µM (active).

Tested on in a further experiment: not listed separately
In words: growth suppression of beta-catenin-knockout colon cells, dose response, cell-based, HCT116, human colon tumor (AID 1045).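 Note: HCT116 colon tumor cells with beta catenin knocked out; cells exposed to compound for 60 hours.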 The class given is functional.
Conditions: not given
Regarding `COc1ccc(-c2c3c(nc4sc5c(Cl)nc(C)nc5c24)CCC3)cc1`, the EC50 was 1.59 µM (active).

As for `Cc1ccc(C(=O)/C=C/c2ccc(Br)cc2)o1`, the EC50 is 6.62 µM (active).

Take `CCOC(=O)c1c(NC(=O)c2cc3n(n2)C(C(F)(F)F)CC(c2cccs2)N3)sc(C)c1C` (centres undefined): the EC50 is 2.59 µM (active).

`Cc1cccc(N(CC(O)CON=C2c3ccccc3-c3ccccc32)S(C)(=O)=O)c1` (centres undefined): the EC50 is 29.6 µM (active).

With `O=C(Nc1nc2ccc(Cl)cc2s1)c1ccc(N2CCCCC2)c([N+](=O)[O-])c1`, the EC50 was 13.5 µM (active).

For `Cc1ccc(-c2nc(CSCC(=O)N3CCN(c4ccccn4)CC3)c(C)o2)cc1`, the EC50 is 17.1 µM (active).

Tested on in a further experiment: not listed separately
In words: inhibitors of clade B AD8 Env fusion, dose response, cell-based, cherry-pick (AID 652062).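 Note: luciferase signal from cell-cell fusion driven by HIV-1 clade B AD8 Env; potency is for inhibitors of fusion seen as a drop in luminescence.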
Conditions: not given
The class given is functional.
For `CCNC(=O)C[C@H]1CC[C@@H]2[C@@H](COc3ccc(NC(=O)Nc4cccc(OC)c4)cc3C(=O)N2C)O1`, the AC50 was 50.2 µM (active).
